Source: ChEMBL document CHEMBL5244261, “Insights of tankyrases: A novel target for drug discovery” (Eur J Med Chem, 2020)

Molecular target: T1, Poly [ADP-ribose] polymerase tankyrase-1 (Homo sapiens, UniProt O95271)
T1 sequence (O95271 whole entry): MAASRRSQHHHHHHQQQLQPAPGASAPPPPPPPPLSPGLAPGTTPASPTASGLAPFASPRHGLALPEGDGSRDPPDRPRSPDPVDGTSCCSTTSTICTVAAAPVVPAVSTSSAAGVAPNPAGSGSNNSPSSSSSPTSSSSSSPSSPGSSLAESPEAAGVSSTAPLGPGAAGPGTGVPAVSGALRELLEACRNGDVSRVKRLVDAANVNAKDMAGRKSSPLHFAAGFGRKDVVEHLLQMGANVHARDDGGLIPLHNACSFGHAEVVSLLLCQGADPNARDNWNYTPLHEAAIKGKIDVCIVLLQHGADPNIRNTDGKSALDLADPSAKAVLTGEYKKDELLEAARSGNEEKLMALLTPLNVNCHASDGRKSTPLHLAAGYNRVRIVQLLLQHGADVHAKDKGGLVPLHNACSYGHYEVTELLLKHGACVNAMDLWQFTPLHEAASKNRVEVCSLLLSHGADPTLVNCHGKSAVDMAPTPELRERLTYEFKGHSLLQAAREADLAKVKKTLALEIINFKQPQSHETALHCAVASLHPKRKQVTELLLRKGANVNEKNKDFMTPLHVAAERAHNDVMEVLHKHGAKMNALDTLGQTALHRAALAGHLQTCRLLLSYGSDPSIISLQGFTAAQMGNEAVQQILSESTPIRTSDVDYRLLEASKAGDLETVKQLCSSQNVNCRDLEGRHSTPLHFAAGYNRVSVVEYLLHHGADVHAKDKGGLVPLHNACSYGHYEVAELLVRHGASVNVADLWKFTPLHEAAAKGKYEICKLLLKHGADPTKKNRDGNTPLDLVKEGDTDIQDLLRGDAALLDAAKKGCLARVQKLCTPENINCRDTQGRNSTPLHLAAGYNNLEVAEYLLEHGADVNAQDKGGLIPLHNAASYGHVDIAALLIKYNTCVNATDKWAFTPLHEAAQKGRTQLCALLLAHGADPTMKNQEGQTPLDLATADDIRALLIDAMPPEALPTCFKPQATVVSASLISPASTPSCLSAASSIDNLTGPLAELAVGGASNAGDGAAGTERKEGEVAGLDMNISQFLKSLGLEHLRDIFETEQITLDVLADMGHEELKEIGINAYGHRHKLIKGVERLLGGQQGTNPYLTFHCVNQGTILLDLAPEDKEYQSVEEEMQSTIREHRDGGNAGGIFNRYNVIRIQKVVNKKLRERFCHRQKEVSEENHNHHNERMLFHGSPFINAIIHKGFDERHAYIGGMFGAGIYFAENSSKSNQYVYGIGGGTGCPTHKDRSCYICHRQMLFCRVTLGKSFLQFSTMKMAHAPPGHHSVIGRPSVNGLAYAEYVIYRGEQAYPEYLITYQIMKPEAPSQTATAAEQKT
Test: Inhibition of human recombinant […] TNKS1 (1030 to 1317 residues) expressed in Escherichia coli assessed as inhibition by fluorescence based analysis

| IC50 [nM] | Structure (SMILES) |
| --- | --- |
| 21 | O=C(Nc1ccc(-c2nc3ccccc3c(=O)[nH]2)cc1)c1cccs1 |
| 23 | COC(=O)c1ccc(-c2nc3ccccc3c(=O)[nH]2)cc1 |
| 15 | O=C1OCCN1c1ccc(-c2nc3ccccc3c(=O)[nH]2)cc1 |
| 5 | CC1(c2ccc(-c3nc4ccccc4c(=O)[nH]3)cc2)NC(=O)NC1=O (stereo not given) |
| 12 | NS(=O)(=O)c1ccc(-c2nc3ccccc3c(=O)[nH]2)cc1 |
